Patent US11999733B2, “Diacylglycerol kinase modulating compounds” (Gilead Sciences, Inc., priority 2021, dated 2024)

These compounds were tested against human DGKα (Homo sapiens, UniProt P23743) (assay: biochemical).
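Note: recombinant enzyme acting on 18:1 DAG micelles (with POPS and octylglucoside) plus 200 µM ATP, 1 h at 25 °C, ADP generated read out by ADP-Glo luminescence.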

Chain of human DGKα (P23743 whole entry): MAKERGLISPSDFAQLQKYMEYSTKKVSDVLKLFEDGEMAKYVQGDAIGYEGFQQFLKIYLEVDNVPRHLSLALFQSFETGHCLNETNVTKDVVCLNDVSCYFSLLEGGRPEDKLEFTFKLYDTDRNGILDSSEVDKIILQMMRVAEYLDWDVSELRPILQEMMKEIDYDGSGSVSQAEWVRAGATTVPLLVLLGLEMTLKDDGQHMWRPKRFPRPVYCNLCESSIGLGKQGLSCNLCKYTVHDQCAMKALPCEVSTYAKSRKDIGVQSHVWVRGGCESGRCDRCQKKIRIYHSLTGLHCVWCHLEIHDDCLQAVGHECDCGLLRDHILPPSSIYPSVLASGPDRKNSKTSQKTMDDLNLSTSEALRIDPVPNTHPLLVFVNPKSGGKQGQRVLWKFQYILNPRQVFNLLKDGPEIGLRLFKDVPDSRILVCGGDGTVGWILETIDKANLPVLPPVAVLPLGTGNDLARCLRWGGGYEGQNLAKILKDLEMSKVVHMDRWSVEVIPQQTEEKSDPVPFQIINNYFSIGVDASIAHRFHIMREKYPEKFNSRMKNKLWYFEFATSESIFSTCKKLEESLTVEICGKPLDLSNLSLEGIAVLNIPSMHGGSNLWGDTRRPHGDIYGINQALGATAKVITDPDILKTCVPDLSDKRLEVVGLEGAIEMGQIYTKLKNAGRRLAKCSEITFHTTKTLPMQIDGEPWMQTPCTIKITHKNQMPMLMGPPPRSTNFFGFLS

**Q.** How did the IC50 turn out when `CCC1(C#Cc2cccc3c2OCCCN3c2nc3nnn(C)c3c3cncc(F)c23)COC1` [Example 1, 9-((3-ethyloxetan-3-yl)ethynyl)-5-(6-fluoro-1-methyl-1H-[1,2,3]triazolo[4,5-c][2,6]naphthyridin-5-yl)-2,3,4,5-tetrahydrobenzo[b][1,4]oxazepine] was run?
**A.** The IC50 was 10.5 nM.

**Q.** For `CCC1(C#Cc2cccc3c2COCCN3c2nc3nnn(C)c3c3cncc(F)c23)COC1` [Example 3, 6-((3-ethyloxetan-3-yl)ethynyl)-1-(6-fluoro-1-methyl-1H-[1,2,3]triazolo[4,5-c][2,6]naphthyridin-5-yl)-1,2,3,5-tetrahydrobenzo[e][1,4]oxazepine], which IC50 is on record?
**A.** The IC50 was 2.73 nM.

**Q.** How did the IC50 turn out when `Cn1nnc2nc(N3CCOCc4c(C#CC5(C)COC5)cccc43)c3c(F)cncc3c21` [Example 4, 1-(6-fluoro-1-methyl-1H-[1,2,3]triazolo[4,5-c][2,6]naphthyridin-5-yl)-6-((3-methyloxetan-3-yl)ethynyl)-1,2,3,5-tetrahydrobenzo[e][1,4]oxazepine] was run?
**A.** Its IC50 is 2.26 nM.

**Q.** Which IC50 does the source give for `Cn1nnc2nc(N3CCCc4c(C#CC(C)(C)C#N)cccc43)c3c(F)cncc3c21` [Example 5, 4-(1-(6-fluoro-1-methyl-1H-[1,2,3]triazolo[4,5-c][2,6]naphthyridin-5-yl)-1,2,3,4-tetrahydroquinolin-5-yl)-2,2-dimethylbut-3-ynenitrile] here?
**A.** The IC50 was 20.8 nM.

**Q.** For `Cn1nnc2nc(N3CCCOc4c(C#CC5(C)CC5)cccc43)c3c(F)cncc3c21` [Example 7, 5-(6-fluoro-1-methyl-1H-[1,2,3]triazolo[4,5-c][2,6]naphthyridin-5-yl)-9-((1-methylcyclopropyl)ethynyl)-2,3,4,5-tetrahydrobenzo[b][1,4]oxazepine], which IC50 is on record?
**A.** The IC50 was 11.5 nM.

**Q.** How did the IC50 turn out when `Cn1nnc2nc(N3CCCOc4c(C#CC(C)(C)C#N)cccc43)c3c(F)cncc3c21` [Example 8, 4-(5-(6-fluoro-1-methyl-1H-[1,2,3]triazolo[4,5-c][2,6]naphthyridin-5-yl)-2,3,4,5-tetrahydrobenzo[b][1,4]oxazepin-9-yl)-2,2-dimethylbut-3-ynenitrile] was run?
**A.** Its IC50 is 10.2 nM.

**Q.** For `Cn1nnc2nc(N3CCCOc4c(C#CC(C)(C)O)cccc43)c3c(F)cncc3c21` [Example 10, 4-(5-(6-fluoro-1-methyl-1H-[1,2,3]triazolo[4,5-c][2,6]naphthyridin-5-yl)-2,3,4,5-tetrahydrobenzo[b][1,4]oxazepin-9-yl)-2-methylbut-3-yn-2-ol], which IC50 is on record?
**A.** The IC50 was 13 nM.

**Q.** Which IC50 does the source give for `Cn1nnc2nc(N3CCOCc4c(C#CC5(C)CC5)cccc43)c3c(F)cncc3c21` [Example 11, 1-(6-fluoro-1-methyl-1H-[1,2,3]triazolo[4,5-c][2,6]naphthyridin-5-yl)-6-((1-methylcyclopropyl)ethynyl)-1,2,3,5-tetrahydrobenzo[e][1,4]oxazepine] here?
**A.** Its IC50 is 8.59 nM.

**Q.** Which IC50 does the source give for `Cn1nnc2nc(N3CCCCc4c(C#CC(C)(C)O)cccc43)c3c(F)cncc3c21` [Example 15, 4-(1-(6-fluoro-1-methyl-1H-[1,2,3]triazolo[4,5-c][2,6]naphthyridin-5-yl)-2,3,4,5-tetrahydro-1H-benzo[b]azepin-6-yl)-2-methylbut-3-yn-2-ol] here?
**A.** Its IC50 is 5.42 nM.

**Q.** How did the IC50 turn out when `Cn1nnc2nc(N(CC(F)F)c3cc(F)cc(C#CC(C)(C)C#N)c3)c3c(F)cncc3c21` [Example 16, 4-(3-((2,2-difluoroethyl)(6-fluoro-1-methyl-1H-[1,2,3]triazolo[4,5-c][2,6]naphthyridin-5-yl)amino)-5-fluorophenyl)-2,2-dimethylbut-3-ynenitrile] was run?
**A.** Its IC50 is 42.2 nM.

**Q.** Which IC50 does the source give for `Cn1nnc2nc(N(CC(F)F)c3ccnc(C#CC4(C)CC4)c3)c3c(F)c(F)ccc3c21` [Example 17, N-(2,2-difluoroethyl)-6,7-difluoro-1-methyl-N-(2-((1-methylcyclopropyl)ethynyl)pyridin-4-yl)-1H-[1,2,3]triazolo[4,5-c]isoquinolin-5-amine] here?
**A.** The IC50 was 61.8 nM.

**Q.** For `Cn1nnc2nc(N(CC(F)F)c3ccnc(C#CC4(C)CC4)c3)c3c(F)cncc3c21` [Example 19, N-(2,2-difluoroethyl)-6-fluoro-1-methyl-N-(2-((1-methylcyclopropyl)ethynyl)pyridin-4-yl)-1H-[1,2,3]triazolo[4,5-c][2,6]naphthyridin-5-amine], which IC50 is on record?
**A.** The IC50 was 31.4 nM.

**Q.** `Cn1nnc2nc(N(CC(F)F)c3ccnc(C#CC(C)(C)C#N)c3)c3c(F)cncc3c21` [Example 20, 4-(4-((2,2-difluoroethyl)(6-fluoro-1-methyl-1H-[1,2,3]triazolo[4,5-c][2,6]naphthyridin-5-yl)amino)pyridin-2-yl)-2,2-dimethylbut-3-ynenitrile] was tested. Which IC50 did it give?
**A.** Its IC50 is 109 nM.

**Q.** With `Cn1nnc2nc(N3CCCc4c(C#CC5(C)CC5)cncc43)c3cc(F)ccc3c21` [Example 22, 7-fluoro-1-methyl-5-(5-((1-methylcyclopropyl)ethynyl)-3,4-dihydro-1,7-naphthyridin-1(2H)-yl)-1H-[1,2,3]triazolo[4,5-c]isoquinoline] as the compound, how does the IC50 read?
**A.** The IC50 was 124 nM.

**Q.** With `Cn1nnc2nc(N(CC(F)F)c3ccnc(C#CC4(C)CC4)c3)c3c(F)cccc3c21` [Example 24, N-(2,2-difluoroethyl)-6-fluoro-1-methyl-N-(2-((1-methylcyclopropyl)ethynyl)pyridin-4-yl)-1H-[1,2,3]triazolo[4,5-c]isoquinolin-5-amine] as the compound, how does the IC50 read?
**A.** The IC50 was 54.5 nM.

**Q.** `Cn1nnc2nc(N(CC(F)F)c3ccnc(C#CC4(C)CC4)c3)c3cc(F)ccc3c21` [Example 25, N-(2,2-difluoroethyl)-7-fluoro-1-methyl-N-(2-((1-methylcyclopropyl)ethynyl)pyridin-4-yl)-1H-[1,2,3]triazolo[4,5-c]isoquinolin-5-amine] was tested. Which IC50 did it give?
**A.** Its IC50 is 39.2 nM.

**Q.** How did the IC50 turn out when `Cn1nnc2nc(N(CC(F)F)c3ccnc(C#CC(C)(C)O)c3)c3cc(F)ccc3c21` [Example 27, 4-(4-((2,2-difluoroethyl)(7-fluoro-1-methyl-1H-[1,2,3]triazolo[4,5-c]isoquinolin-5-yl)amino)pyridin-2-yl)-2-methylbut-3-yn-2-ol] was run?
**A.** The IC50 was 143 nM.

**Q.** `Cn1nnc2nc(N3CCCc4c(C#CC(C)(C)C#N)cncc43)c3c(F)cccc3c21` [Example 30, 4-(1-(6-fluoro-1-methyl-1H-[1,2,3]triazolo[4,5-c]isoquinolin-5-yl)-1,2,3,4-tetrahydro-1,7-naphthyridin-5-yl)-2,2-dimethylbut-3-ynenitrile] was tested. Which IC50 did it give?
**A.** Its IC50 is 160 nM.

**Q.** For `Cn1nnc2nc(N3CCCc4c(C#CC(C)(C)O)cncc43)c3c(F)cncc3c21` [Example 32, 4-(1-(6-fluoro-1-methyl-1H-[1,2,3]triazolo[4,5-c][2,6]naphthyridin-5-yl)-1,2,3,4-tetrahydro-1,7-naphthyridin-5-yl)-2-methylbut-3-yn-2-ol], which IC50 is on record?
**A.** The IC50 was 93 nM.

**Q.** With `Cn1nnc2nc(N(CC(F)F)c3cc(F)cc(C#CC(C)(C)O)c3)c3cc(F)cnc3c21` [Example 34, 4-(3-((2,2-difluoroethyl)(7-fluoro-1-methyl-1H-[1,2,3]triazolo[4,5-h][1,6]naphthyridin-5-yl)amino)-5-fluorophenyl)-2-methylbut-3-yn-2-ol] as the compound, how does the IC50 read?
**A.** Its IC50 is 26.1 nM.

**Q.** For `Cn1nnc2nc(N3CCCc4c(C#CC(C)(C)C#N)cccc43)c3cc(F)cnc3c21` [Example 35, 4-(1-(7-fluoro-1-methyl-1H-[1,2,3]triazolo[4,5-h][1,6]naphthyridin-5-yl)-1,2,3,4-tetrahydroquinolin-5-yl)-2,2-dimethylbut-3-ynenitrile], which IC50 is on record?
**A.** Its IC50 is 50.7 nM.

**Q.** For `Cn1nnc2nc(N(CC(F)F)c3cc(F)cc(C#CC4(C(F)(F)F)CC4)c3)c3c(F)cncc3c21` [Example 38, N-(2,2-difluoroethyl)-6-fluoro-N-(3-fluoro-5-((1-(trifluoromethyl)cyclopropyl)ethynyl)phenyl)-1-methyl-1H-[1,2,3]triazolo[4,5-c][2,6]naphthyridin-5-amine], which IC50 is on record?
**A.** The IC50 was 51.6 nM.

**Q.** `Cn1nnc2nc(N3CCCc4c(C#CC5(C(F)(F)F)CC5)cccc43)c3c(F)cncc3c21` [Example 40, 6-fluoro-1-methyl-5-(5-((1-(trifluoromethyl)cyclopropyl)ethynyl)-3,4-dihydroquinolin-1(2H)-yl)-1H-[1,2,3]triazolo[4,5-c][2,6]naphthyridine] was tested. Which IC50 did it give?
**A.** The IC50 was 41.9 nM.

**Q.** Which IC50 does the source give for `Cn1nnc2nc(N(CC(F)F)c3cc(F)cc(C#CC(C)(C)O)c3)c3cc(F)ccc3c21` [Example 43, 4-(3-((2,2-difluoroethyl)(7-fluoro-1-methyl-1H-[1,2,3]triazolo[4,5-c]isoquinolin-5-yl)amino)-5-fluorophenyl)-2-methylbut-3-yn-2-ol] here?
**A.** The IC50 was 34.1 nM.

**Q.** How did the IC50 turn out when `Cn1nnc2nc(N3CCCc4c(C#CC(C)(C)O)cccc43)c3c(F)cccc3c21` [Example 45, 4-(1-(6-fluoro-1-methyl-1H-[1,2,3]triazolo[4,5-c]isoquinolin-5-yl)-1,2,3,4-tetrahydroquinolin-5-yl)-2-methylbut-3-yn-2-ol] was run?
**A.** Its IC50 is 19.4 nM.

**Q.** For `Cn1nnc2nc(N(CC(F)F)c3cc(F)cc(C#CC4(C(F)(F)F)CC4)c3)c3c(F)cccc3c21` [Example 48, N-(2,2-difluoroethyl)-6-fluoro-N-(3-fluoro-5-((1-(trifluoromethyl)cyclopropyl)ethynyl)phenyl)-1-methyl-1H-[1,2,3]triazolo[4,5-c]isoquinolin-5-amine], which IC50 is on record?
**A.** Its IC50 is 64.9 nM.

**Q.** How did the IC50 turn out when `Cn1nnc2nc(N3CCCc4c(C#CC5(C(F)(F)F)CC5)cccc43)c3ccc(Cl)cc3c21` [Example 50, 8-chloro-1-methyl-5-(5-((1-(trifluoromethyl)cyclopropyl)ethynyl)-3,4-dihydroquinolin-1(2H)-yl)-1H-[1,2,3]triazolo[4,5-c]isoquinoline] was run?
**A.** Its IC50 is 23.2 nM.

**Q.** Which IC50 does the source give for `Cn1nnc2nc(N(CC(F)F)c3cc(F)cc(C#CC(C)(C)O)c3)c3ccc(Cl)cc3c21` [Example 51, 4-(3-((8-chloro-1-methyl-1H-[1,2,3]triazolo[4,5-c]isoquinolin-5-yl)(2,2-difluoroethyl)amino)-5-fluorophenyl)-2-methylbut-3-yn-2-ol] here?
**A.** The IC50 was 22.5 nM.
